Data from patent publication US9540377B2, “2,6,7,8 substituted purines as HDM2 inhibitors” (Merck Sharp & Dohme Corp., priority 2013, dated 2017).
pIC50: −log10 of the molar value.

These compounds were tested against HDM2 (truncated, residues 17 to 125, containing p53 binding surface) (Homo sapiens (Human), UniProt Q00987) (assay: HDM2 FRET assay (inhibition of binding of FITC labeled p53-site peptide to HDM2)). Conditions: Table 16.
Source text: IC50 DETERMINATIONS: Dose-response curves were plotted from the inhibition data, from 10 point serial dilutions of inhibitory compounds. Concentration of compound was plotted against em520/Cem495 ratio signal. To generate IC50 values, the dose-response curves were fitted to a standard sigmoidal curve and IC50 values were derived by nonlinear regression analysis.

Sequence of HDM2 (truncated, residues 17 to 125, containing p53 binding surface) (Q00987 17-125): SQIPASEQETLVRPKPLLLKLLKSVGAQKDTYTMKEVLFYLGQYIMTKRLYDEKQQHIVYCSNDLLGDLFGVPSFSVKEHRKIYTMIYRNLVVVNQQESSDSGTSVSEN

Q: `C[C@H]1CC[C@H](Cn2c(N3CCO[C@H]4CCCC[C@H]43)nc3nc(-c4noc(=O)[nH]4)nc(-c4cncc(Cl)c4)c32)CC1` (racemic) [Example 16.131, 3-{6-(5-chloropyridin-3-yl)-7-[(trans-4-methylcyclohexyl)methyl]-8-[(cis)-octahydro-4H-1,4-benzoxazin-4-yl]-7H-purin-2-yl}-1,2,4-oxadiazol-5(4H)-one] was tested. Which pIC50 did it give?
A: Its pIC50 is 7.46.

Q: How did the pIC50 turn out when `Cc1nnc(C2CCCN2c2nc3nc(-c4noc(=O)[nH]4)nc(-c4cncc(Cl)c4)c3n2C[C@H]2CC[C@H](C)CC2)o1` (mixture of isomers) [Example 16.141, 3-{6-(5-chloropyridin-3-yl)-7-[(trans-4-methylcyclohexyl)methyl]-8-[2-(5-methyl-1,3,4-oxadiazol-2-yl)pyrrolidin-1-yl]-7H-purin-2-yl}-1,2,4-oxadiazol-5(4H)-one] was run?
A: Its pIC50 is 7.57.

Q: With `Cc1noc(C2CCCN2c2nc3nc(-c4noc(=O)[nH]4)nc(-c4cncc(Cl)c4)c3n2C[C@H]2CC[C@H](C)CC2)n1` (mixture of isomers) [Example 16.143, 3-{6-(5-chloropyridin-3-yl)-7-[(trans-4-methylcyclohexyl)methyl]-8-[2-(3-methyl-1,2,4-oxadiazol-5-yl)pyrrolidin-1-yl]-7H-purin-2-yl}-1,2,4-oxadiazol-5(4H)-one] as the compound, how does the pIC50 read?
A: The pIC50 was 8.83.

Q: With `Cc1noc(C2CCCN2c2nc3nc(C(=O)O)nc(-c4cncc(Cl)c4)c3n2C[C@H]2CC[C@H](C)CC2)n1` (mixture of isomers) [Example 16.145, 6-(5-chloropyridin-3-yl)-7-[(trans-4-methylcyclohexyl)methyl]-8-[2-(3-methyl-1,2,4-oxadiazol-5-yl)pyrrolidin-1-yl]-7H-purine-2-carboxylic acid] as the compound, how does the pIC50 read?
A: Its pIC50 is 8.41.

Q: `Cc1noc(C2CCCN2c2nc3nc(-c4n[nH]c(=O)o4)nc(-c4cncc(Cl)c4)c3n2C[C@H]2CC[C@H](C)CC2)n1` (mixture of isomers) [Example 16.146, 5-{6-(5-chloropyridin-3-yl)-7-[(trans-4-methylcyclohexyl)methyl]-8-[2-(3-methyl-1,2,4-oxadiazol-5-yl)pyrrolidin-1-yl]-7H-purin-2-yl}-1,3,4-oxadiazol-2(3H)-one] was tested. Which pIC50 did it give?
A: The pIC50 was 8.52.

Q: With `CO[C@H]1CCN(c2nc3nc(-c4n[nH]c(=O)o4)nc(-c4cncc(Cl)c4)c3n2C[C@H]2CC[C@H](C)CC2)[C@@H](C)C1` (racemic) [Example 16.154, 5-{6-(5-chloropyridin-3-yl)-8-[(cis)-4-methoxy-2-methylpiperidin-1-yl]-7-[(trans-4-methylcyclohexyl)methyl]-7H-purin-2-yl}-1,3,4-oxadiazol-2(3H)-one] as the compound, how does the pIC50 read?
A: Its pIC50 is 7.17.

Q: How did the pIC50 turn out when `CO[C@@H]1CCN(c2nc3nc(-c4n[nH]c(=O)o4)nc(-c4cncc(Cl)c4)c3n2C[C@H]2CC[C@H](C)CC2)[C@@H](C)C1` (racemic) [Example 16.155, 5-{6-(5-chloropyridin-3-yl)-8-[(trans)-4-methoxy-2-methylpiperidin-1-yl]-7-[(trans-4-methylcyclohexyl)methyl]-7H-purin-2-yl}-1,3,4-oxadiazol-2(3H)-one] was run?
A: The pIC50 was 7.31.

Q: How did the pIC50 turn out when `COCCOc1cc(Cl)cc(-c2nc(-c3noc(=O)[nH]3)nc3nc(N4CCO[C@@H]5CCC[C@H]54)n(C[C@H]4CC[C@H](C)CC4)c23)c1` (racemic) [Example 16.160, 3-{6-[3-chloro-5-(2-methoxyethoxyl)phenyl]-8-[(trans)-hexahydrocyclopenta[b][1,4]oxazin-4(4aH)-yl]-7-[(trans-4-methylcyclohexyl)methyl]-7H-purin-2-yl}-1,2,4-oxadiazol-5(4H)-one] was run?
A: The pIC50 was 7.68.

Q: `Cc1ncc(Cl)cc1-c1nc(-c2noc(=O)[nH]2)nc2nc(N3CCO[C@@H]4CCC[C@H]43)n(C[C@H]3CC[C@H](C)CC3)c12` (racemic) [Example 16.164, 3-{6-(5-chloro-2-methylpyridin-3-yl)-8-[(trans)-hexahydrocyclopenta [b][1,4]oxazin-4(4aH)-yl]-7-[(trans-4-methylcyclohexyl)methyl]-7H-purin-2-yl}-1,2,4-oxadiazol-5(4H)-one] was tested. Which pIC50 did it give?
A: The pIC50 was 8.68.

Same assay, conditions: Table 23

Q: `C[C@H]1CC[C@H](Cn2c(C(O)C3CCCCC3)nc3nc(-c4noc(=O)[nH]4)nc(-c4cccc(Cl)c4)c32)CC1` (mixture of isomers) [Example 23.5, 3-{6-(3-chlorophenyl)-8-[cyclohexyl(hydroxy)methyl]-7-[(trans-4-methylcyclohexyl)methyl]-7H-purin-2-yl}-1,2,4-oxadiazol-5(4H)-one] was tested. Which pIC50 did it give?
A: The pIC50 was 8.14.

Q: With `C[C@H]1CC[C@H](Cn2c(C(O)C3CCCCC3)nc3nc(-c4n[nH]c(=O)o4)nc(-c4cccc(Cl)c4)c32)CC1` (mixture of isomers) [Example 23.7, 5-{6-(3-chlorophenyl)-8-[cyclohexyl(hydroxy)methyl]-7-[(trans-4-methylcyclohexyl)methyl]-7H-purin-2-yl}-1,3,4-oxadiazol-2(3H)-one] as the compound, how does the pIC50 read?
A: Its pIC50 is 7.70.

Q: How did the pIC50 turn out when `CC(O)(c1nc2nc(-c3noc(=O)[nH]3)nc(-c3cccc(Cl)c3)c2n1C[C@H]1CC[C@H](C)CC1)C1CCCCC1` (mixture of isomers) [Example 23.10, 3-{6-(3-chlorophenyl)-8-(1-cyclohexyl-1-hydroxyethyl)-7-[(trans-4-methylcyclohexyl)methyl]-7H-purin-2-yl}-1,2,4-oxadiazol-5(4H)-one] was run?
A: The pIC50 was 7.81.

Q: How did the pIC50 turn out when `CC(O)(c1nc2nc(-c3n[nH]c(=O)o3)nc(-c3cccc(Cl)c3)c2n1C[C@H]1CC[C@H](C)CC1)C1CCCCC1` (mixture of isomers) [Example 23.11, 5-{6-(3-chlorophenyl)-8-(1-cyclohexyl-1-hydroxyethyl)-7-[(trans-4-methylcyclohexyl)methyl]-7H-purin-2-yl}-1,3,4-oxadiazol-2(3H)-one] was run?
A: The pIC50 was 6.67.

Q: `COC(c1nc2nc(-c3n[nH]c(=O)o3)nc(-c3cccc(Cl)c3)c2n1C[C@H]1CC[C@H](C)CC1)C1CCCCC1` (mixture of isomers) [Example 23.15, 5-{6-(3-chlorophenyl)-8-[cyclohexyl(methoxy)methyl]-7-[(trans-4-methylcyclohexyl)methyl]-7H-purin-2-yl}-1,3,4-oxadiazol-2(3H)-one] was tested. Which pIC50 did it give?
A: The pIC50 was 7.64.

Q: `COC(c1nc2nc(-c3n[nH]c(=O)o3)nc(-c3cccc(Cl)c3)c2n1C[C@H]1CC[C@H](C)CC1)C1CCOCC1` (mixture of isomers) [Example 23.16, 5-{6-(3-chlorophenyl)-8-[methoxy(tetrahydro-2H-pyran-4-yl)methyl]-7-[(trans-4-methylcyclohexyl)methyl]-7H-purin-2-yl}-1,3,4-oxadiazol-2(3H)-one] was tested. Which pIC50 did it give?
A: Its pIC50 is 7.91.

Q: With `COC(c1nc2nc(-c3noc(=O)[nH]3)nc(-c3cncc(Cl)c3)c2n1C[C@H]1CC[C@H](C)CC1)C1CCOCC1` (mixture of isomers) [Example 23.18, 3-{6-(5-chloropyridin-3-yl)-8-[methoxy(tetrahydro-2H-pyran-4-yl)methyl]-7-[(trans-4-methylcyclohexyl)methyl]-7H-purin-2-yl}-1,2,4-oxadiazol-5(4H)-one] as the compound, how does the pIC50 read?
A: Its pIC50 is 7.62.

Q: How did the pIC50 turn out when `COC(c1nc2nc(-c3n[nH]c(=O)o3)nc(-c3cncc(Cl)c3)c2n1C[C@H]1CC[C@H](C)CC1)C1CCOCC1` (mixture of isomers) [Example 23.20, 5-{6-(5-chloropyridin-3-yl)-8-[methoxy(tetrahydro-2H-pyran-4-yl)methyl]-7-[(trans-4-methylcyclohexyl)methyl]-7H-purin-2-yl}-1,3,4-oxadiazol-2(3H)-one] was run?
A: The pIC50 was 7.56.

Q: `COC(c1nc2nc(-c3n[nH]c(=O)o3)nc(-c3cncc(Cl)c3)c2n1C[C@H]1CC[C@H](C)CC1)C1CCCCC1` (mixture of isomers) [Example 23.22, 5-{6-(5-chloropyridin-3-yl)-8-[cyclohexyl(methoxy)methyl]-7-[(trans-4-methylcyclohexyl)methyl]-7H-purin-2-yl}-1,3,4-oxadiazol-2(3H)-one] was tested. Which pIC50 did it give?
A: The pIC50 was 7.92.

Q: `COC(c1nc2nc(-c3n[nH]c(=O)o3)nc(-c3cncc(Cl)c3)c2n1C[C@H]1CC[C@H](C)CC1)C1CCCC1` (mixture of isomers) [Example 23.23, 5-{6-(5-chloropyridin-3-yl)-8-[cyclopentyl(methoxy)methyl]-7-[(trans-4-methylcyclohexyl)methyl]-7H-purin-2-yl}-1,3,4-oxadiazol-2(3H)-one] was tested. Which pIC50 did it give?
A: Its pIC50 is 8.06.

Q: `C[C@H]1CC[C@H](Cn2c(C(F)C3CCCCC3)nc3nc(-c4noc(=O)[nH]4)nc(-c4cccc(Cl)c4)c32)CC1` (mixture of isomers) [Example 23.29, 3-{6-(3-chlorophenyl)-8-[cyclohexyl(fluoro)methyl]-7-[(trans-4-methylcyclohexyl)methyl]-7H-purin-2-yl}-1,2,4-oxadiazol-5(4H)-one] was tested. Which pIC50 did it give?
A: The pIC50 was 7.46.

Q: With `COC(C)(c1ncoc1C)c1nc2nc(-c3noc(=O)[nH]3)nc(-c3cccc(Cl)c3)c2n1C[C@H]1CC[C@H](C)CC1` (mixture of isomers) [Example 23.57, 3-{6-(3-chlorophenyl)-8-[1-methoxy-1-(5-methyl-1,3-oxazol-4-yl)ethyl]-7-[(trans-4-methylcyclohexyl)methyl]-7H-purin-2-yl}-1,2,4-oxadiazol-5(4H)-one] as the compound, how does the pIC50 read?
A: The pIC50 was 8.68.

Q: With `CC(F)(c1nc2nc(-c3n[nH]c(=O)o3)nc(-c3cncc(Cl)c3)c2n1C[C@H]1CC[C@H](C)CC1)C1CCCC1` (mixture of isomers) [Example 23.58, 5-{6-(5-chloropyridin-3-yl)-8-(1-cyclopentyl-1-fluoroethyl)-7-[(trans-4-methylcyclohexyl)methyl]-7H-purin-2-yl}-1,3,4-oxadiazol-2(3H)-one] as the compound, how does the pIC50 read?
A: Its pIC50 is 8.71.

Q: With `COC(c1nc2nc(-c3noc(=O)[nH]3)nc(-c3cncc(Cl)c3)c2n1C[C@H]1CC[C@H](C)CC1)C1CCCC1` (mixture of isomers) [Example 23.61, 3-{6-(5-chloropyridin-3-yl)-8-[cyclopentyl(methoxy)methyl]-7-[(trans-4-methylcyclohexyl)methyl]-7H-purin-2-yl}-1,2,4-oxadiazol-5(4H)-one] as the compound, how does the pIC50 read?
A: Its pIC50 is 8.33.

Q: With `COC(C)(c1nc2nc(-c3noc(=O)[nH]3)nc(-c3cncc(Cl)c3)c2n1C[C@H]1CC[C@H](C)CC1)C1CCCC1` (mixture of isomers) [Example 23.71, 3-{6-(5-chloropyridin-3-yl)-8-(1-cyclopentyl-1-methoxyethyl)-7-[(trans-4-methylcyclohexyl)methyl]-7H-purin-2-yl}-1,2,4-oxadiazol-5(4H)-one] as the compound, how does the pIC50 read?
A: Its pIC50 is 8.89.
